Assay results taken from patent US20120046363A1, “DOCOSAHEXAENOIC ACID FOR THE TREATMENT OF HEART FAILURE” (University of Maryland, Baltimore, priority 2009, published 2012).

Assays:
Type in all cases: in vivo, male Wistar rats
[1] = tested on: mitochondrial permeability transition pore (MPTP); experiment: Ca2+ retention capacity (index of MPTP opening) in mitochondria from diet-treated rats, Series 1
Method: (§1) Experimental Design: The animal protocol was conducted according to the Guideline for the Care and Use of Laboratory Animals (NIH publication 85-23) and was approved by the University of Maryland School of Medicine Institutional Animal Care and Use Committee. Investigators were blinded to treatment when measurements were performed. The animals were maintained on a reverse 12-h light-dark cycle and all procedures were performed in the fed state between 3 and 6 h from the start of the dark phase. Two series of experiments were performed. In the initial studies (Series 1) male Wistar rats weighing 190-200 g were fed a standard low fat diet (CTRL) or modified standard diet containing DHA or EPA at 2.5% of total caloric intake, which corresponds to a human intake of approximately 5.5 g/day (calculated assuming an energy intake of 2000 kcal/day and 9 kcal/g of fat). The rats were maintained on the diet for 8 weeks. Following dietary treatment, rats were anesthetized with isoflurane, blood was drawn, and the heart was harvested for biochemical analysis and mitochondrial isolation. Plasma from these animals was analyzed for free fatty acids and triglyceride levels, and cardiac mitochondria for respiration, Ca^2+ retention capacity (an index of MPTP opening), VDAC and cyclophilin D, and membrane phospholipid composition as described below. Following completion of Series 1, a second series of animal studies (Series 2) were performed to assess mitochondrial swelling using a light scattering assay, and the effects of different respiratory substrates on Ca^2+ retention capacity in mitochondria from control and DHA supplemented rats. Animals were treated for 10 weeks and were fed either CTRL or DHA (2.5% of total caloric intake).
(§2) Mitochondrial Preparation: Mitochondria were isolated as previously described^228. LV tissue (400-500 mg) was minced and homogenized in 1:10 cold modified Chappel-Perry buffer (100 mM KCl, 50 mM MOPS, 5 mM MgSO4, 1 mM ATP, 1 mM EGTA, 2 mg/ml BSA), and the homogenates were centrifuged at 500×g. Subsequent centrifugation allowed for separation and purification of the subsarcolemmal mitochondria. The concentration of mitochondrial protein was measured by the Lowry method using bovine serum albumin as a standard.

[2] = tested on: isolated cardiac mitochondria; experiment: Mitochondrial respiration (oxygen consumption, Clark-type electrode); settings: for P:O: measurements without oligomycin; for RCR: ratio of State 3 to State 4 rate with oligomycin
Method: as §1, §2
Mitochondrial respiration: Mitochondrial oxygen consumption was measured using a Clark-type oxygen electrode (Qubit Systems, Ontario, Canada). Mitochondria (0.25 mg protein) were suspended in 0.5 ml solution consisting of 100 mM KCl, 50 mM MOPS, 5 mM KH2PO4, 1 mM EGTA, and 0.5 mg fatty acid-free bovine serum albumin, at pH 7.4 and 37° C. State 3 (ADP-stimulated) and state 4 (non-phosphorylating) respiration were measured with glutamate+malate (10 and 5 mM, respectively), pyruvate+malate (10 and 5 mM, respectively) and palmitoylcarnitine+malate (40 μM and 5 mM, respectively) to assess respiration through complex I-IV, while succinate+rotenone (10 mM and 7.5 μM, respectively), were used to assess respiration through complex II-IV of the ETC exclusively. State 4 respiration was also measured in the presence of oligomycin to inhibit the mitochondrial ATP synthase.

VDAC2 = experiment: Western blot of isolated mitochondria, densitometry; settings: CTRL 1.00 ± 0.15
Method: (§3) Metabolic and Biochemical Parameters: Free fatty acids and triglycerides were assessed in the plasma using commercially available kits (Wako, Richmond, Va.). Mitochondrial proteins were separated by electrophoresis in 4-12% NuPage gels, transferred onto a nitrocellulose membrane, and incubated with specific antibodies to cyclophilin D and voltage-dependent anion channel (VDAC) (1:10,000 and 1:5000, respectively, both from Mitosciences, Eugene, Oreg.). Fluorescence-conjugated secondary antibodies (IRDye 800, 1:10,000; LI-COR Bioscience) were used for incubation before the membranes were scanned with Odyssey® infrared imaging system (LI-COR Bioscience). The digitized image was analyzed with Odyssey® software.

VDAC1 = experiment: as above; settings: CTRL 1.00 ± 0.13
Method: as §3

cyclophilin D = experiment: as above; settings: CTRL 1.00 ± 0.08
Method: as §3

[3] = tested on: isolated cardiac mitochondria; experiment: Cardiac mitochondrial cardiolipin (CL) content and composition by electrospray ionization mass spectrometry; settings: Series 1, 8 weeks diet; CTRL 10.7±0.8; DHA vs CTRL p<0.08
Method: as §1, with “Following completion of Series 1, a second series of animal studies (Series 2) were performed to assess mitochondrial swelling using a light scattering assay, and the effects of different respiratory substrates on Ca^2+ retention capacity in mitochondria from control and DHA supplemented rats. Animals were treated for 10 weeks and were fed either CTRL or DHA (2.5% of total caloric intake).” left out
Mitochondrial Preparation: Mitochondria were isolated as previously described^228. […] The concentration of mitochondrial protein was measured by the Lowry method using bovine serum albumin as a standard.
(§4) Membrane Lipid Composition: Cardiac phospholipid fatty acid composition was assessed in a subset of animals from Series 1 (n=7-9/group) on isolated cardiac mitochondria homogenates by gas chromatography with a flame ionization detector according to a modification of the transesterification method as previously described^228. CL composition was assessed on isolated cardiac mitochondria by electrospray ionization mass spectrometry using 1,1′,2,2′-tetramyristoyl CL as an internal standard as previously described (n=9/group)^228,229, 230.

[4] = tested on: isolated cardiac mitochondria; experiment: Cardiac mitochondrial phospholipid fatty acid composition by gas chromatography; settings: Series 1, 8 weeks diet, mean ± SEM
Method: as §1, §2, §4

`CC/C=C\C/C=C\C/C=C\C/C=C\C/C=C\C/C=C\CCC(=O)O` [DHA, docosahexaenoic acid] was tested, and the “Ca2+ required to elicit MPTP” value ([1]; glutamate + malate, without CsA, CTRL 83.0±8.7) was 134.9±11.4 nmol Ca^2+/mg mito prot, the “Ca2+ required to elicit MPTP” value ([1]; mitochondria of diet group with addition of 100 nM CsA) was 147.0±17.3 nmol Ca^2+/mg mito prot and the “State 4 (+ oligomycin) respiration” value ([2]; Glutamate + Malate) was 17.2 ± 2.0 ng atoms O · mg^−1 · min^−1. For the same molecule, the “State 4 (− oligomycin) respiration” value ([2]; Glutamate + Malate) was 35.3 ± 2.9 ng atoms O · mg^−1 · min^−1, the “State 3 respiration” value ([2]; Glutamate + Malate, mean ± SEM) was 115.2 ± 16.2 ng atoms O · mg^−1 · min^−1 and the “P:O” value ([2]; Glutamate + Malate) was 2.37 ± 0.18. For the same molecule, the RCR ([2]; Glutamate + Malate) was 7.0 ± 0.9, the “State 3 respiration” value ([2]; Palmityl-carnitine + Malate) was 265.7 ± 34.4 ng atoms O · mg^−1 · min^−1 and the “State 4 (+ oligomycin) respiration” value ([2]; Palmityl-carnitine + Malate) was 24.9 ± 2.6 ng atoms O · mg^−1 · min^−1. For the same molecule, the “State 4 (− oligomycin) respiration” value ([2]; Palmityl-carnitine + Malate) was 42.6 ± 1.9 ng atoms O · mg^−1 · min^−1, the “P:O” value ([2]; Palmityl-carnitine + Malate) was 2.50 ± 0.12 and the RCR ([2]; Palmityl-carnitine + Malate) was 11.4 ± 1.8. The “State 3 respiration” value ([2]; Pyruvate + Malate) was 240.4 ± 28.7 ng atoms O · mg^−1 · min^−1, the “State 4 (+ oligomycin) respiration” value ([2]; Pyruvate + Malate) was 34.8 ± 4.2 ng atoms O · mg^−1 · min^−1 and the “State 4 (− oligomycin) respiration” value ([2]; Pyruvate + Malate) was 54.0 ± 3.2 ng atoms O · mg^−1 · min^−1. For the same molecule, the “P:O” value ([2]; Pyruvate + Malate) was 2.48 ± 0.09, the RCR ([2]; Pyruvate + Malate) was 7.7 ± 1.0 and the “State 3 respiration” value ([2]; Succinate + Rotenone) was 325.2 ± 19.6 ng atoms O · mg^−1 · min^−1. The “State 4 (+ oligomycin) respiration” value ([2]; Succinate + Rotenone) was 84.7 ± 10.1 ng atoms O · mg^−1 · min^−1, the “State 4 (− oligomycin) respiration” value ([2]; Succinate + Rotenone) was 99.3 ± 7.0 ng atoms O · mg^−1 · min^−1 and the “P:O” value ([2]; Succinate + Rotenone) was 1.48 ± 0.06. The RCR ([2]; Succinate + Rotenone) was 4.1 ± 0.4, the “decrease of state 4 respiration” value ([2]; pyruvate+malate, absence and presence of oligomycin, vs control, p<0.05) was 30% and the “increase of RCR” value ([2]; pyruvate+malate, vs control, p<0.05) was 70%. For the same molecule, the “VDAC 2 protein, densitometry” value (VDAC2) was 1.02 ± 0.20, the “VDAC 1 protein, densitometry” value (VDAC1) was 1.03 ± 0.22 and the “Cyclophilin D protein, densitometry” value (cyclophilin D) was 1.01 ± 0.10. The “total CL content” value [3] was 13.2±0.8 nmols/mg mito prot, the “Mitochondrial phospholipid C18:0” value [4] was 18.9 ± 0.5 molar percent of total phospholipid fatty acid and the “Mitochondrial phospholipid C18:1n7” value [4] was 3.7 ± 0.2 molar percent of total phospholipid fatty acid. For the same molecule, the “Mitochondrial phospholipid C18:1n9” value [4] was 13.0 ± 1.0 molar percent of total phospholipid fatty acid, the “Mitochondrial phospholipid C18:2n6” value [4] was 23.1 ± 1.0 molar percent of total phospholipid fatty acid and the “Mitochondrial phospholipid Total ω-3 PUFA” value [4] was 19.2 ± 0.5 molar percent of total phospholipid fatty acid. The “Mitochondrial phospholipid C16:0” value ([4]; n = 7-8/group) was 13.3 ± 0.5 molar percent of total phospholipid fatty acid, the “Mitochondrial phospholipid C20:3n6” value ([4]; BQL in control) was 1.6 ± 0.2 molar percent of total phospholipid fatty acid and the “Mitochondrial phospholipid C22:6n3” value ([4]; DHA) was 14.8 ± 0.6 molar percent of total phospholipid fatty acid. The “Mitochondrial phospholipid C20:5n3” value ([4]; EPA, BQL in control) was 4.4 ± 0.3 molar percent of total phospholipid fatty acid and the “Mitochondrial phospholipid C20:4n6” value ([4]; arachidonic acid (ARA)) was 5.7 ± 0.2 molar percent of total phospholipid fatty acid.
